Key:
S. aureus Newman [1] = assay: fitness (endpoint OD595 vs no drug) (fraction); higher = more growth
Method in brief: (§1)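 With the first reading as background, OD595 was measured every 30 min for 14 h in 384-well plates kept at 37 °C and inoculated at OD595 0.01. TSB, LB Lennox or CY was the medium. Fitness is the optical density at the transition into stationary phase divided by the robust mean of no-drug control wells, with a cap of 1.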

S. aureus DSM 20231 [2] = assay: as above; conditions: main component drawn
Method in brief: as §1

B. subtilis 168 [3] = assay: Bliss interaction score (quartile over a dose matrix) (fitness difference); higher = more antagonism (negative = synergy)
Method in brief: (§2)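 Values were capped at 1 after dividing OD595 at stationary-phase entry by the plate's robust no-drug mean. This ratio is fitness, and single-drug fitness was inferred from the combination data. The Bliss score is observed minus product-expected fitness, given as quartiles over technical, biological and donor/recipient replicates.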

S. aureus Newman [4] = assay: as above
Method in brief: as §2

S. pneumoniae D39V [5] = assay: as above
Method in brief: as §2

S. aureus DSM 20231 [6] = assay: as above
Method in brief: as §2

B. subtilis 168 [7] = assay: fitness (endpoint OD595 vs no drug) (fraction); higher = more growth
Method in brief: as §1

S. pneumoniae D39V [8] = assay: as above
Method in brief: as §1

[9] = first compound 85.5 µg/mL, partner 0.039 µg/mL
[10] = first compound 85.5 µg/mL, partner 0.078 µg/mL
[11] = first compound 85.5 µg/mL, partner 0.156 µg/mL
[12] = first compound 171 µg/mL, partner 0.039 µg/mL
[13] = first compound 171 µg/mL, partner 0.078 µg/mL
[14] = first compound 171 µg/mL, partner 0.156 µg/mL
[15] = first compound 342 µg/mL, partner 0.039 µg/mL
[16] = first compound 342 µg/mL, partner 0.078 µg/mL
[17] = first compound 342 µg/mL, partner 0.156 µg/mL
[18] = first compound 85.5 µg/mL, partner 2 µg/mL
[19] = first compound 85.5 µg/mL, partner 8 µg/mL
[20] = first compound 171 µg/mL, partner 2 µg/mL
[21] = first compound 171 µg/mL, partner 8 µg/mL
[22] = first compound 342 µg/mL, partner 2 µg/mL
[23] = first compound 342 µg/mL, partner 8 µg/mL
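For Bliss interaction score (quartile over a dose matrix) in this document: first quartile when negative (synergy) and third quartile when positive (antagonism).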

## CCN(CC)CCOC(=O)c1ccc(N)cc1 [Procaine] + CCCCCCCCCC(=O)N[C@@H]1[C@H]([C@@H]([C@H](O[C@H]1OC2=C3C=C4C=C2OC5=C(C=C(C=C5)[C@H]([C@H]6C(=O)N[C@@H](C7=C(C(=CC(=C7)O)OC8[C@H]([C@H]([C@@H]([C@H](O8)CO)O)O)O)C9=C(C=CC(=C9)[C@H](C(=O)N6)NC(=O)[C@@H]4NC(=O)[C@@H]1C2=CC(=CC(=C2)OC2=C(C=CC(=C2)[C@H](C(=O)N[C@H](CC2=CC(=C(O3)C=C2)Cl)C(=O)N1)N)O)O)O)C(=O)O)O[C@H]1[C@@H]([C@H]([C@@H]([C@H](O1)CO)O)O)NC(=O)C)Cl)CO)O)O [Teicoplanin]
S. aureus Newman [1]; first compound 85.5 µg/mL, partner 0.1562 µg/mL, main component drawn
  fitness: 0.996
S. aureus Newman [1]; first compound 85.5 µg/mL, partner 0.3125 µg/mL, main component drawn
  fitness: 0.975
S. aureus Newman [1]; first compound 85.5 µg/mL, partner 0.62 µg/mL, one replicate, main component drawn
  fitness: 0.774
S. aureus Newman [1]; first compound 85.5 µg/mL, partner 0.625 µg/mL, main component drawn
  fitness: 0.83
S. aureus Newman [1]; first compound 85.5 µg/mL, partner 1.24 µg/mL, one replicate, main component drawn
  fitness: 0.785
S. aureus Newman [1]; first compound 85.5 µg/mL, partner 2.48 µg/mL, one replicate, main component drawn
  fitness: 0.407
S. aureus Newman [1]; first compound 171 µg/mL, partner 0.1562 µg/mL, main component drawn
  fitness: ≥ 1
S. aureus Newman [1]; first compound 171 µg/mL, partner 0.3125 µg/mL, main component drawn
  fitness: 0.981
S. aureus Newman [1]; first compound 171 µg/mL, partner 0.62 µg/mL, one replicate, main component drawn
  fitness: 0.738
S. aureus Newman [1]; first compound 171 µg/mL, partner 0.625 µg/mL, main component drawn
  fitness: 0.898
S. aureus Newman [1]; first compound 171 µg/mL, partner 1.24 µg/mL, one replicate, main component drawn
  fitness: 0.705
S. aureus Newman [1]; first compound 171 µg/mL, partner 2.48 µg/mL, one replicate, main component drawn
  fitness: 0.496
S. aureus Newman [1]; first compound 342 µg/mL, partner 0.1562 µg/mL, main component drawn
  fitness: 0.997
S. aureus Newman [1]; first compound 342 µg/mL, partner 0.3125 µg/mL, main component drawn
  fitness: 0.963
S. aureus Newman [1]; first compound 342 µg/mL, partner 0.62 µg/mL, one replicate, main component drawn
  fitness: 0.765
S. aureus Newman [1]; first compound 342 µg/mL, partner 0.625 µg/mL, main component drawn
  fitness: 0.889
S. aureus Newman [1]; first compound 342 µg/mL, partner 1.24 µg/mL, one replicate, main component drawn
  fitness: 0.726
S. aureus Newman [1]; first compound 342 µg/mL, partner 2.48 µg/mL, one replicate, main component drawn
  fitness: 0.478
S. aureus DSM 20231 [2]; first compound 85.5 µg/mL, partner 0.1562 µg/mL
  fitness: ≥ 1
S. aureus DSM 20231 [2]; first compound 85.5 µg/mL, partner 0.3125 µg/mL
  fitness: 0.975
S. aureus DSM 20231 [2]; first compound 85.5 µg/mL, partner 0.625 µg/mL
  fitness: ≥ 1
S. aureus DSM 20231 [2]; first compound 171 µg/mL, partner 0.1562 µg/mL
  fitness: ≥ 1
S. aureus DSM 20231 [2]; first compound 171 µg/mL, partner 0.3125 µg/mL
  fitness: ≥ 1
S. aureus DSM 20231 [2]; first compound 171 µg/mL, partner 0.625 µg/mL
  fitness: ≥ 1
S. aureus DSM 20231 [2]; first compound 342 µg/mL, partner 0.1562 µg/mL
  fitness: 0.992
S. aureus DSM 20231 [2]; first compound 342 µg/mL, partner 0.3125 µg/mL
  fitness: ≥ 1
S. aureus DSM 20231 [2]; first compound 342 µg/mL, partner 0.625 µg/mL
  fitness: ≥ 1
B. subtilis 168 [3]; main component drawn
  Bliss interaction score: -0.0776
S. aureus Newman [4]; main component drawn
  Bliss interaction score: 0.0323
S. pneumoniae D39V [5]; main component drawn
  Bliss interaction score: -0.113
S. aureus DSM 20231 [6]; main component drawn
  Bliss interaction score: 0.044

## CCN(CC)CCOC(=O)c1ccc(N)cc1 [Procaine] + CN(C)c1cc(NC(=O)CNC(C)(C)C)c(O)c2c1C[C@H]1C[C@H]3[C@H](N(C)C)C(O)=C(C(N)=O)C(=O)[C@@]3(O)C(O)=C1C2=O [Tigecycline]
B. subtilis 168 [7]; [9]
  fitness: 0.94
B. subtilis 168 [7]; [10]
  fitness: 0.916
B. subtilis 168 [7]; first compound 85.5 µg/mL, partner 0.125 µg/mL, one replicate
  fitness: ≥ 1
B. subtilis 168 [7]; [11]
  fitness: 0.895
B. subtilis 168 [7]; first compound 85.5 µg/mL, partner 0.25 µg/mL, one replicate
  fitness: 0.891
B. subtilis 168 [7]; first compound 85.5 µg/mL, partner 0.5 µg/mL, one replicate
  fitness: 0.913
B. subtilis 168 [7]; [12]
  fitness: 0.978
B. subtilis 168 [7]; [13]
  fitness: 0.96
B. subtilis 168 [7]; first compound 171 µg/mL, partner 0.125 µg/mL, one replicate
  fitness: 0.985
B. subtilis 168 [7]; [14]
  fitness: 0.909
B. subtilis 168 [7]; first compound 171 µg/mL, partner 0.25 µg/mL, one replicate
  fitness: 0.917
B. subtilis 168 [7]; first compound 171 µg/mL, partner 0.5 µg/mL, one replicate
  fitness: 0.916
B. subtilis 168 [7]; [15]
  fitness: 0.929
B. subtilis 168 [7]; [16]
  fitness: 0.858
B. subtilis 168 [7]; first compound 342 µg/mL, partner 0.125 µg/mL, one replicate
  fitness: 0.974
B. subtilis 168 [7]; [17]
  fitness: 0.856
B. subtilis 168 [7]; first compound 342 µg/mL, partner 0.25 µg/mL, one replicate
  fitness: 0.917
B. subtilis 168 [7]; first compound 342 µg/mL, partner 0.5 µg/mL, one replicate
  fitness: 0.905
S. aureus Newman [1]; [9]
  fitness: 0.955
S. aureus Newman [1]; [10]
  fitness: ≥ 1
S. aureus Newman [1]; [11]
  fitness: ≥ 1
S. aureus Newman [1]; [12]
  fitness: 0.965
S. aureus Newman [1]; [13]
  fitness: 0.986
S. aureus Newman [1]; [14]
  fitness: ≥ 1
S. aureus Newman [1]; [15]
  fitness: 0.928
S. aureus Newman [1]; [16]
  fitness: 0.996
S. aureus Newman [1]; [17]
  fitness: 0.991
S. pneumoniae D39V [8]; first compound 85.5 µg/mL, partner 0.65 µg/mL
  fitness: 0.974
S. pneumoniae D39V [8]; first compound 85.5 µg/mL, partner 1.3 µg/mL
  fitness: 0.946
S. pneumoniae D39V [8]; first compound 85.5 µg/mL, partner 2.6 µg/mL
  fitness: 0.927
S. pneumoniae D39V [8]; first compound 171 µg/mL, partner 0.65 µg/mL
  fitness: 0.993
S. pneumoniae D39V [8]; first compound 171 µg/mL, partner 1.3 µg/mL
  fitness: 0.952
S. pneumoniae D39V [8]; first compound 171 µg/mL, partner 2.6 µg/mL
  fitness: 0.935
S. pneumoniae D39V [8]; first compound 342 µg/mL, partner 0.65 µg/mL
  fitness: 1
S. pneumoniae D39V [8]; first compound 342 µg/mL, partner 1.3 µg/mL
  fitness: 0.957
S. pneumoniae D39V [8]; first compound 342 µg/mL, partner 2.6 µg/mL
  fitness: 0.932
B. subtilis 168 [3]
  Bliss interaction score: -0.0701
S. aureus Newman [4]
  Bliss interaction score: 0.0571
S. pneumoniae D39V [5]
  Bliss interaction score: 0.0455
S. aureus DSM 20231 [6]
  Bliss interaction score: 0.0953

## CCN(CC)CCOC(=O)c1ccc(N)cc1 [Procaine] + CN[C@@H]1[C@H](O[C@H]2[C@H](O[C@H]3[C@H](O)[C@@H](O)[C@H](N=C(N)N)[C@@H](O)[C@@H]3N=C(N)N)O[C@@H](C)[C@]2(O)C=O)O[C@@H](CO)[C@H](O)[C@H]1O [Streptomycin]
B. subtilis 168 [7]; [18]
  fitness: 0.914
B. subtilis 168 [7]; [19]
  fitness: 0.0423
B. subtilis 168 [7]; [20]
  fitness: 0.921
B. subtilis 168 [7]; [21]
  fitness: 0.0261
B. subtilis 168 [7]; [22]
  fitness: 0.94
B. subtilis 168 [7]; [23]
  fitness: 0.0278
S. aureus Newman [1]; first compound 85.5 µg/mL, partner 1 µg/mL
  fitness: 0.994
S. aureus Newman [1]; [18]
  fitness: 0.983
S. aureus Newman [1]; first compound 171 µg/mL, partner 1 µg/mL
  fitness: 0.963
S. aureus Newman [1]; [20]
  fitness: 0.96
S. aureus Newman [1]; first compound 342 µg/mL, partner 1 µg/mL
  fitness: 0.957
S. aureus Newman [1]; [22]
  fitness: 0.985
S. pneumoniae D39V [8]; [18]
  fitness: 0.985
S. pneumoniae D39V [8]; first compound 85.5 µg/mL, partner 4 µg/mL
  fitness: 0.984
S. pneumoniae D39V [8]; [19]
  fitness: 0.952
S. pneumoniae D39V [8]; first compound 85.5 µg/mL, partner 16 µg/mL, one replicate
  fitness: 0.815
S. pneumoniae D39V [8]; [20]
  fitness: 0.988
S. pneumoniae D39V [8]; first compound 171 µg/mL, partner 4 µg/mL
  fitness: 0.984
S. pneumoniae D39V [8]; [21]
  fitness: 0.92
S. pneumoniae D39V [8]; first compound 171 µg/mL, partner 16 µg/mL, one replicate
  fitness: 0.759
S. pneumoniae D39V [8]; [22]
  fitness: 0.933
S. pneumoniae D39V [8]; first compound 342 µg/mL, partner 4 µg/mL
  fitness: 0.945
S. pneumoniae D39V [8]; [23]
  fitness: 0.9
S. pneumoniae D39V [8]; first compound 342 µg/mL, partner 16 µg/mL, one replicate
  fitness: 0.75
B. subtilis 168 [3]
  Bliss interaction score: -0.117
S. aureus Newman [4]
  Bliss interaction score: 0.0657
S. pneumoniae D39V [5]
  Bliss interaction score: 0.0529
S. aureus DSM 20231 [6]
  Bliss interaction score: 0.0982

Source: the supplement of paper PMC10627819
